Legend:
A549 cells = test: Cell viability assay, A549; assay type: cell-based; details: Homo sapiens; A549 non-small cell lung cancer
CLK1 = molecular target: T1, CLK1 (Homo sapiens, UniProt P49759); test: In vitro kinase assay (ADP-Glo), CLK1; assay type: biochemical; details: for IC50: 5 µM ATP; for activity for CLK1 relative to Cpd-1: stronger than Cpd-1
T1 construct: purchased Life Technologies
Procedure: The ATP concentration for each assay was adjusted to the Km for each kinase. Kinase assays for SRPK1–3 and CLK1 were performed using the ADP-Glo™ assay (Promega, Madison, WI). The kinase buffer contained 25 mM HEPES (pH 7.5), 10 mM magnesium acetate, 1 mM DTT, 0.01% BSA, and 0.01% Tween-20. The reaction mixtures contained 50 ng/mL SRPK1, 100 ng/mL SRPK2 or SRPK3, or 300 ng/mL CLK1 and 3 μM substrate peptide [GRSRSRSRSRSRSRSR] (Thermo Scientific). After incubating the enzyme, peptide, and compounds for 10 min, kinase reactions were initiated by adding ATP to a final concentration of 5 µM, followed by incubation for 30 min (15 min for SRPK1). The kinase reactions were terminated by adding ADP-Glo™ reagent (Promega). ADP was detected using a kinase detection reagent (Promega). The kinase activity of CLK2 was measured using the LANCE® Ultra assay (Perkin-Elmer, Waltham, MA) with ADP-Glo assay buffer. The reaction mixtures contained 100 ng/mL CLK2 and 50 nM ULight™-myelin basic protein (MBP) peptide (Perkin-Elmer). After incubating the enzyme, peptide, and compounds for 5 min, kinase reactions were initiated by adding ATP to a final concentration of 20 μM, followed by incubation for 30 min. The enzyme reactions were terminated by adding 30 mM EDTA, and phosphorylated ULight-MBP peptides were detected using a europium-labeled anti-phospho-MBP antibody diluted with detection buffer (Perkin-Elmer). The plates were read using an EnVision 2102 multilabel reader (Perkin-Elmer). We defined the absorbance of the reaction without enzyme as 100% inhibitory activity and that of the complete reaction mixture as 0% inhibitory activity. The IC50 values were estimated using the “Sigmoidal dose-response (variable slope)” equation in GraphPad Prism 5 software (GraphPad Software, San Diego, CA), with the maximum and minimum of the curve constrained to 100 and 0, respectively.

SW620 cells = test: Cell viability assay, SW620; assay type: cell-based; details: Homo sapiens, SW-620; SW620 colorectal cancer
[1] = test system: S6K pre-mRNA splicing in HCT-116 cells; test: S6K pre-mRNA splicing alteration (quantitative RT-PCR), HCT-116; assay type: cell-based, human; details: ratio of S6K exons 6–8 to exons 6–7 is 0.1
Description: (§1) To examine whether inhibition of a particular CLK and/or SRPK contributed to the alternative splicing of S6K pre-mRNA, we used an additional series of compounds with the same scaffold as Cpd-1, Cpd-2, and Cpd-3, but different selectivity. First, we examined the correlation between the enzymatic activity and the level of splicing alterations of S6K pre-mRNA for the individual compounds. We used the exon 7-skipped type of S6K variant to calibrate Rc0.1 values, i.e., the concentrations that induced 10% of the copy number of an alternative isoform compared with that of the canonical isoform. The inhibition of CLK1 and CLK2 activities was correlated with the splicing alteration activities (Rc0.1) (R^2 = 0.3353 and 0.4255, respectively). In contrast, there was no correlation between the activities of SRPKs and the Rc0.1 values (R^2 < 0.0468) (Fig. 3A). Next, we compared the levels of splicing alteration and growth inhibition of the compounds. […] Similar correlations between Rc0.1 and GI50 values were also obtained in seven different cancer cell lines after treatment with Cpd-2 or Cpd-3 (Table 2).
(§2) Total RNA was extracted using an RNeasy Miniprep Kit (Qiagen, Valencia, CA) in accordance with the manufacturer’s instructions. Reverse transcription was performed using a TaqMan Reverse Transcription Reagents Kit (Applied Biosystems, Carlsbad, CA). The PCR conditions were as follows: one cycle of 5 min at 95°C; 35 cycles of 30 s at 94°C, 30 s at 60°C, and 30 s at 72°C; and one cycle of 10 min at 72°C. The PCR products were separated in 2% agarose gels. Real-time PCR was performed using a TaqMan MGB probe (Applied Biosystems), and the amount of FAM fluorescence was measured as a function of the PCR cycle number (CT) using an ABI 7900 Real-time PCR System (Applied Biosystems). The expression level of each mRNA was normalized by that of GAPDH mRNA.

[2] = test system: S6K pre-mRNA splicing in A549 cells; test: S6K pre-mRNA splicing alteration (quantitative RT-PCR), A549; assay type: cell-based, human; details: ratio of S6K exons 6–8 to exons 6–7 is 0.1
Description: as §1, §2

NCI-H23 cells = test: Cell viability assay, NCI-H23; assay type: cell-based; details: Homo sapiens; NCI-H23 non-small cell lung cancer
MDA-MB-468 cells = test: Cell viability assay (CellTiter-Glo), MDA-MB-468; assay type: cell-based; details: Homo sapiens; MDA-MB-468 breast cancer, 72 h
Procedure: MDA-MB-468 cells (5 × 10^3) were seeded into 96-well plates and incubated overnight in 50 μL of culture medium. Next, 50 µL of each compound diluted in culture medium was added to the wells. After 72 h of incubation, viability was determined using the CellTiter-Glo Luminescent Cell Viability Assay (Promega) according to the manufacturer’s instructions. The GI50 values were calculated using GraphPad Prism 5 software with a sigmoid dose-response curve.

[3] = test system: S6K pre-mRNA splicing in SW620 cells; test: S6K pre-mRNA splicing alteration (quantitative RT-PCR), SW620; assay type: cell-based, human; details: ratio of S6K exons 6–8 to exons 6–7 is 0.1
Description: as §1, §2

[4] = test system: S6K pre-mRNA splicing in NCI-H23 cells; test: S6K pre-mRNA splicing alteration (quantitative RT-PCR), NCI-H23; assay type: cell-based, human; details: ratio of S6K exons 6–8 to exons 6–7 is 0.1
Description: as §1, §2

COLO320DM cells = test: Cell viability assay, COLO320DM; assay type: cell-based; details: Homo sapiens, COLO 320DM; COLO320DM colorectal cancer
[5] = test system: S6K pre-mRNA splicing in COLO205 cells; test: S6K pre-mRNA splicing alteration (quantitative RT-PCR), COLO205; assay type: cell-based, human; details: ratio of S6K exons 6–8 to exons 6–7 is 0.1
Description: as §1, §2

[6] = test system: S6K pre-mRNA splicing in COLO320DM cells; test: S6K pre-mRNA splicing alteration (quantitative RT-PCR), COLO320DM; assay type: cell-based, human; details: ratio of S6K exons 6–8 to exons 6–7 is 0.1
Description: as §1, §2

[7] = test system: S6K pre-mRNA splicing in MDA-MB-468 cells; test: S6K pre-mRNA splicing alteration (quantitative RT-PCR), MDA-MB-468; assay type: cell-based, human; details: for Rc0.1: MDA-MB-468, concentration at which ratio of copy number of S6K exons 6–8 to S6K exons 6–7 is 0.1; for concentration at which expression level of the alternatively spliced S6K mRNAs was highest: MDA-MB-468, 6 h, S6K exons 6–8 (exon 7 skipped)
Description: as §1, §2

COLO205 cells = test: Cell viability assay, COLO205; assay type: cell-based; details: Homo sapiens, COLO 205; COLO205 colorectal cancer

T1 sequence (P49759 whole entry): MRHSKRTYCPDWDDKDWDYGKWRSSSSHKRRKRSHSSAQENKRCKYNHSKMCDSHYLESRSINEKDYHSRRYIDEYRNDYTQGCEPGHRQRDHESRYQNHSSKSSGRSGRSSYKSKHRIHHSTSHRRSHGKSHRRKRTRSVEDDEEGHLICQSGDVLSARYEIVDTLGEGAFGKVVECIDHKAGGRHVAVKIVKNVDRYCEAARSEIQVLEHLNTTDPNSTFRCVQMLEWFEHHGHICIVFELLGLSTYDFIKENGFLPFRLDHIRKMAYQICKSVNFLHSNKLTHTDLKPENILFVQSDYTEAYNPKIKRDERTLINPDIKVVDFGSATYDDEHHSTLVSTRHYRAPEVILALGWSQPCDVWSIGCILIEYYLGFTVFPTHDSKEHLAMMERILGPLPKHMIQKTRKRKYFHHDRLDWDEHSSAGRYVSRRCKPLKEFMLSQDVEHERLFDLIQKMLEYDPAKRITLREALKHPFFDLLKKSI

Row | Structure (SMILES) | GI50 (A549 cells) [nM] | IC50 (CLK1) [nM] | GI50 (SW620 cells) [nM] | Rc0.1 [1] [µM] | Rc0.1 [2] [µM] | GI50 (NCI-H23 cells) [nM] | GI50 (MDA-MB-468 cells) [nM] | Rc0.1 [3] [µM] | Rc0.1 [4] [µM] | GI50 (COLO320DM cells) [nM] | Rc0.1 [5] [µM] | Rc0.1 [6] [µM] | Rc0.1 [7] [µM] | GI50 (COLO205 cells) [nM] | activity for CLK1 relative to Cpd-1 (CLK1) [fold] | concentration at which expression level of the alternatively spliced S6K mRNAs was highest [7] [µM]
1 | CC(C)(CCc1nnn[nH]1)c1ccc(C(=O)Nc2cn3cc(C(F)(F)F)ccc3n2)cc1 [Cpd-1, 4-(2-methyl-4-(1H-tetrazol-5-yl)butan-2-yl)-N-(6-(trifluoromethyl)imidazo[1,2-a]pyridin-2-yl)benzamide] | 102000 | 16 | 41800 | >10 | >10 | 32000 | 30500 | >10 | >10 | 43000 | >10 | >10 | 8.6 | 27300 |  | 
2 | CC(C)(C)c1ccc(C(=O)Nc2cn3cc(-c4cn[nH]c4)ccc3n2)cn1 [Cpd-2, 6-tert-butyl-N-(6-(1H-pyrazol-4-yl)imidazo[1,2-a]pyridin-2-yl)nicotinamide] | 1900 | 1.1 | 2000 | 1.2 | 0.3 | 1400 | 3000 | 1.2 | 0.9 | 600 | 1.6 | 0.9 | 0.3 | 1700 | 10 | 1.1 to 3.3
3 | CC(C)(CO)c1ccc(C(=O)Nc2cn3cc(-c4cn[nH]c4)ccc3n2)cc1 [Cpd-3, 4-(1-hydroxy-2-methylpropan-2-yl)-N-(6-(1H-pyrazol-4-yl)imidazo[1,2-a]pyridin-2-yl)benzamide] | 2600 | 1.1 | 2900 | 1.9 | 1.2 | 2200 | 3400 | 1.4 | 1.1 | 1500 | 2.6 | 1.1 | 0.5 | 2100 | 10 | 1.1 to 3.3

Source: PMC4291223, “Inhibitors of CLK Protein Kinases Suppress Cell Growth and Induce Apoptosis by Modulating Pre-mRNA Splicing” (PLoS ONE, 2015)
